# Source: patent publication US20100298141A1, “SUBSTITUTED PYRIDINE N-OXIDE HERBICIDES” (E. I. DU PONT DE NEMOURS AND COMPANY, priority 2007, published 2010)
# Tests used:
# Assay in all cases: Test F preemergence test
# large crabgrass = assay type: in vivo, Digitaria sanguinalis; details: scale 0 to 100
# Outline: (§1)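 Compounds in a non-phytotoxic solvent formulation with surfactant were applied before emergence after sowing, or, for sugarcane, also postemergence. Evaluation was visual, against controls, after 14 to 21 greenhouse days.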
# green foxtail = assay type: in vivo, Setaria viridis; details: scale 0 to 100
# Outline: as §1
# goosegrass = assay type: in vivo, Eleusine indica; details: scale 0 to 100
# Outline: as §1
# johnsongrass = assay type: in vivo, Sorghum halepense; details: scale 0 to 100
# Outline: as §1
# pitted morningglory = assay type: in vivo, Ipomoea lacunosa; details: scale 0 to 100
# Source text: Seeds of plant species selected from bermudagrass (Cynodon dactylon), Surinam grass (Brachiaria decumbens), large crabgrass (Digitaria sanguinalis), green foxtail (Setaria viridis), goosegrass (Eleusine indica), johnsongrass (Sorghum halepense), kochia (Kochia scoparia), pitted morningglory (Ipomoea lacunosa), purple nutsedge (Cyperus rotundus), common ragweed (Ambrosia elation), mustard (Brassica nigra), guineagrass (Panicum maximum), […] (Paspalum dilatatum), barnyardgrass (Echinochloa crus-galli), southern sandbur (Cenchrus echinatus), common sowthistle (Sonchus oleraceous), prickly […] spinosa), Italian ryegrass (Lolium multiflorum), common purslane (Portulaca oleracea), broadleaf signalgrass (Brachiaria platyphylla), common groundsel (Senecio vulgaris), common chickweed (Stellaria media), Virginia dayflower (Commelina virginica), annual bluegrass (Poa annua), naked crabgrass (Digitaria nuda), […] cochinchinensis), quackgrass (Elytrigia repens), Canada horseweed (Conyza canadensis), field bindweed (Convolvulus arvensis), […] (Bidens bipinnata), common mallow (Malva sylvestris), Russian thistle (Salsola kali), and sugarcane (Saccharum officinarum) were planted and treated preemergence with test chemicals formulated in a non-phytotoxic solvent mixture which included a surfactant. At a different time, sugarcane was treated with postemergence applications of some of the test chemicals formulated in the same manner. Plants were approximately 3- to 4-leaf stage for the postemergence treatments. Treated plants and controls were maintained in a greenhouse for 14 to 21 days, after which time all species were compared to controls and visually evaluated. […] A dash (-) response means no test result.
# purple nutsedge = assay type: in vivo, Cyperus rotundus; details: scale 0 to 100
# Outline: as §1
# common ragweed = assay type: in vivo, Ambrosia elation; details: scale 0 to 100
# Outline: as §1
# barnyardgrass = assay type: in vivo, Echinochloa crus-galli
# Outline: as §1
# southern sandbur = assay type: in vivo, Cenchrus echinatus; details: scale 0 to 100
# Outline: as §1
# Italian ryegrass = assay type: in vivo, Lolium multiflorum; details: scale 0 to 100
# Outline: as §1
# common purslane = assay type: in vivo, Portulaca oleracea; details: scale 0 to 100
# Outline: as §1
# common groundsel = assay type: in vivo, Senecio vulgaris; details: scale 0 to 100
# Outline: as §1
# annual bluegrass = assay type: in vivo, Poa annua; details: scale 0 to 100
# Outline: as §1
# naked crabgrass = assay type: in vivo, Digitaria nuda; details: scale 0 to 100
# Outline: as §1
# itchgrass = assay type: in vivo, Rottboellia cochinchinensis; details: scale 0 to 100
# Outline: as §1
# field bindweed = assay type: in vivo, Convolvulus arvensis; details: scale 0 to 100
# Outline: as §1
# [1] = 62 g ai/ha, Preemergence, scale 0 to 100
# [2] = 125 g ai/ha, preemergence, scale 0 to 100
# [3] = Preemergence, 31 g ai/ha, scale 0 to 100
compound,measurement,setting,value
Cc1cc[n+]([O-])c(S(=O)(=O)Cc2c(C(F)(F)F)nn(C)c2OCC(F)(F)F)c1 [Compound 31],"Plant response rating, Crabgrass, Large","large crabgrass; 16 g ai/ha, preemergence",30
same,"Crabgrass, Large plant response rating","large crabgrass; 125 g ai/ha, preemergence",100
same,"Plant response rating, Crabgrass, Large","large crabgrass; Preemergence, 31 g ai/ha",95
same,"Plant response rating, Foxtail, Green","green foxtail; 16 g ai/ha, preemergence",60
same,"Foxtail, Green plant response rating","green foxtail; 62 g ai/ha, Preemergence",100
same,"Foxtail, Green plant response rating","green foxtail; 125 g ai/ha, preemergence",100
same,"Plant response rating, Foxtail, Green","green foxtail; Preemergence, 31 g ai/ha",95
same,"Plant response rating, Goosegrass","goosegrass; 16 g ai/ha, preemergence",50
same,Goosegrass plant response rating,"goosegrass; 62 g ai/ha, Preemergence",100
same,Goosegrass plant response rating,"goosegrass; 125 g ai/ha, preemergence",100
same,"Plant response rating, Goosegrass","goosegrass; Preemergence, 31 g ai/ha",75
same,"Plant response rating, Johnsongrass","johnsongrass; 16 g ai/ha, preemergence",40
same,Johnsongrass plant response rating,"johnsongrass; 62 g ai/ha, Preemergence",100
same,Johnsongrass plant response rating,"johnsongrass; 125 g ai/ha, preemergence",100
same,"Plant response rating, Johnsongrass","johnsongrass; Preemergence, 31 g ai/ha",50
same,"Plant response rating, Morningglory","pitted morningglory; 16 g ai/ha, preemergence",0
same,Morningglory plant response rating,"pitted morningglory; 62 g ai/ha, Preemergence",60
same,Morningglory plant response rating,"pitted morningglory; 125 g ai/ha, preemergence",98
same,"Plant response rating, Morningglory","pitted morningglory; Preemergence, 31 g ai/ha",20
same,"Plant response rating, Purple Nutsedge","purple nutsedge; 16 g ai/ha, preemergence",40
same,Purple Nutsedge plant response rating,"purple nutsedge; 62 g ai/ha, Preemergence",70
same,Purple Nutsedge plant response rating,"purple nutsedge; 125 g ai/ha, preemergence",100
same,"Plant response rating, Purple Nutsedge","purple nutsedge; Preemergence, 31 g ai/ha",50
same,"Plant response rating, Ragweed","common ragweed; 16 g ai/ha, preemergence",20
same,Ragweed plant response rating,"common ragweed; 125 g ai/ha, preemergence",100
same,"Plant response rating, Ragweed","common ragweed; Preemergence, 62 g ai/ha",90
same,"Plant response rating, Ragweed","common ragweed; Preemergence, 31 g ai/ha",75
same,"Plant response rating, Barnyardgrass","barnyardgrass; 16 g ai/ha, preemergence, scale 0 to 100 (0 no effect, 100 complete control)",50
same,Barnyardgrass plant response rating,barnyardgrass; [1],100
same,Barnyardgrass plant response rating,barnyardgrass; [2],100
same,"Plant response rating, Barnyardgrass",barnyardgrass; [3],95
same,"Plant response rating, Sandbur","southern sandbur; 16 g ai/ha, preemergence",40
same,Sandbur plant response rating,"southern sandbur; 125 g ai/ha, preemergence",100
same,"Plant response rating, Sandbur","southern sandbur; Preemergence, 62 g ai/ha",100
same,"Plant response rating, Sandbur","southern sandbur; Preemergence, 31 g ai/ha",90
same,"Plant response rating, Ryegrass, Italian","Italian ryegrass; 16 g ai/ha, preemergence",50
same,"Ryegrass, Italian plant response rating","Italian ryegrass; 125 g ai/ha, preemergence",90
same,"Plant response rating, Ryegrass, Italian","Italian ryegrass; Preemergence, 62 g ai/ha",90
same,"Plant response rating, Ryegrass, Italian","Italian ryegrass; Preemergence, 31 g ai/ha",90
same,"Plant response rating, Purslane","common purslane; 16 g ai/ha, preemergence",25
same,Purslane plant response rating,"common purslane; 62 g ai/ha, Preemergence",40
same,Purslane plant response rating,"common purslane; 125 g ai/ha, preemergence",65
same,Groundsel plant response rating,"common groundsel; 125 g ai/ha, preemergence",100
same,"Plant response rating, Bluegrass","annual bluegrass; 16 g ai/ha, preemergence",35
same,Bluegrass plant response rating,"annual bluegrass; 62 g ai/ha, Preemergence",75
same,Bluegrass plant response rating,"annual bluegrass; 125 g ai/ha, preemergence",90
same,"Plant response rating, Bluegrass","annual bluegrass; Preemergence, 31 g ai/ha",65
same,"Plant response rating, Crabgrass, Naked","naked crabgrass; 16 g ai/ha, preemergence",75
same,"Crabgrass, Naked plant response rating","naked crabgrass; 62 g ai/ha, Preemergence",100
same,"Crabgrass, Naked plant response rating","naked crabgrass; 125 g ai/ha, preemergence",100
same,"Plant response rating, Crabgrass, Naked","naked crabgrass; Preemergence, 31 g ai/ha",85
same,"Plant response rating, Itchgrass","itchgrass; 16 g ai/ha, preemergence",10
same,Itchgrass plant response rating,"itchgrass; 62 g ai/ha, Preemergence",60
same,Itchgrass plant response rating,"itchgrass; 125 g ai/ha, preemergence",80
same,"Plant response rating, Itchgrass","itchgrass; Preemergence, 31 g ai/ha",25
same,"Plant response rating, Field Bindweed","field bindweed; 16 g ai/ha, preemergence",0
same,Field Bindweed plant response rating,"field bindweed; 62 g ai/ha, Preemergence",40
same,Field Bindweed plant response rating,"field bindweed; 125 g ai/ha, preemergence",70
same,"Plant response rating, Field Bindweed","field bindweed; Preemergence, 31 g ai/ha",0
Cc1cc[n+]([O-])c(S(=O)(=O)C(C)c2c(C(F)(F)F)nn(C)c2OC(F)F)c1 (centres unmarked) [Compound 11],"Crabgrass, Large plant response rating","large crabgrass; 62 g ai/ha, Preemergence",98
same,"Crabgrass, Large plant response rating","large crabgrass; 125 g ai/ha, preemergence",100
same,"Plant response rating, Crabgrass, Large","large crabgrass; Preemergence, 16 g ai/ha",60
same,"Plant response rating, Crabgrass, Large","large crabgrass; Preemergence, 31 g ai/ha",80
same,"Foxtail, Green plant response rating","green foxtail; 62 g ai/ha, Preemergence",80
same,"Foxtail, Green plant response rating","green foxtail; 125 g ai/ha, preemergence",90
same,"Plant response rating, Foxtail, Green","green foxtail; Preemergence, 16 g ai/ha",5
same,"Plant response rating, Foxtail, Green","green foxtail; Preemergence, 31 g ai/ha",35
same,Goosegrass plant response rating,"goosegrass; 62 g ai/ha, Preemergence",98
same,Goosegrass plant response rating,"goosegrass; 125 g ai/ha, preemergence",100
same,"Plant response rating, Goosegrass","goosegrass; Preemergence, 16 g ai/ha",70
same,"Plant response rating, Goosegrass","goosegrass; Preemergence, 31 g ai/ha",90
same,Johnsongrass plant response rating,"johnsongrass; 62 g ai/ha, Preemergence",90
same,Johnsongrass plant response rating,"johnsongrass; 125 g ai/ha, preemergence",95
same,"Plant response rating, Johnsongrass","johnsongrass; Preemergence, 16 g ai/ha",70
same,"Plant response rating, Johnsongrass","johnsongrass; Preemergence, 31 g ai/ha",70
same,Morningglory plant response rating,"pitted morningglory; 62 g ai/ha, Preemergence",90
same,Morningglory plant response rating,"pitted morningglory; 125 g ai/ha, preemergence",100
same,"Plant response rating, Morningglory","pitted morningglory; Preemergence, 16 g ai/ha",0
same,"Plant response rating, Morningglory","pitted morningglory; Preemergence, 31 g ai/ha",30
same,Purple Nutsedge plant response rating,"purple nutsedge; 62 g ai/ha, Preemergence",100
same,Purple Nutsedge plant response rating,"purple nutsedge; 125 g ai/ha, preemergence",100
same,"Plant response rating, Purple Nutsedge","purple nutsedge; Preemergence, 16 g ai/ha",25
same,"Plant response rating, Purple Nutsedge","purple nutsedge; Preemergence, 31 g ai/ha",65
same,Ragweed plant response rating,"common ragweed; 62 g ai/ha, Preemergence",75
same,Ragweed plant response rating,"common ragweed; 125 g ai/ha, preemergence",100
same,"Plant response rating, Ragweed","common ragweed; Preemergence, 16 g ai/ha",30
same,"Plant response rating, Ragweed","common ragweed; Preemergence, 31 g ai/ha",65
same,Barnyardgrass plant response rating,barnyardgrass; [1],95
same,Barnyardgrass plant response rating,barnyardgrass; [2],98
same,"Plant response rating, Barnyardgrass","barnyardgrass; Preemergence, 16 g ai/ha, scale 0 to 100",75
same,"Plant response rating, Barnyardgrass",barnyardgrass; [3],95
same,Sandbur plant response rating,"southern sandbur; 62 g ai/ha, Preemergence",100
same,Sandbur plant response rating,"southern sandbur; 125 g ai/ha, preemergence",100
same,"Plant response rating, Sandbur","southern sandbur; Preemergence, 31 g ai/ha",95
same,"Ryegrass, Italian plant response rating","Italian ryegrass; 62 g ai/ha, Preemergence",75
same,"Ryegrass, Italian plant response rating","Italian ryegrass; 125 g ai/ha, preemergence",95
same,"Plant response rating, Ryegrass, Italian","Italian ryegrass; Preemergence, 16 g ai/ha",35
same,"Plant response rating, Ryegrass, Italian","Italian ryegrass; Preemergence, 31 g ai/ha",50
same,Purslane plant response rating,"common purslane; 62 g ai/ha, Preemergence",70
same,Purslane plant response rating,"common purslane; 125 g ai/ha, preemergence",80
same,"Plant response rating, Purslane","common purslane; Preemergence, 16 g ai/ha",40
same,"Plant response rating, Purslane","common purslane; Preemergence, 31 g ai/ha",60
same,Groundsel plant response rating,"common groundsel; 62 g ai/ha, Preemergence",95
same,Groundsel plant response rating,"common groundsel; 125 g ai/ha, preemergence",98
same,"Plant response rating, Groundsel","common groundsel; Preemergence, 16 g ai/ha",0
same,"Plant response rating, Groundsel","common groundsel; Preemergence, 31 g ai/ha",25
same,Bluegrass plant response rating,"annual bluegrass; 62 g ai/ha, Preemergence",60
same,Bluegrass plant response rating,"annual bluegrass; 125 g ai/ha, preemergence",90
same,"Plant response rating, Bluegrass","annual bluegrass; Preemergence, 16 g ai/ha",0
same,"Plant response rating, Bluegrass","annual bluegrass; Preemergence, 31 g ai/ha",30
same,"Crabgrass, Naked plant response rating","naked crabgrass; 62 g ai/ha, Preemergence",98
same,"Crabgrass, Naked plant response rating","naked crabgrass; 125 g ai/ha, preemergence",100
same,"Plant response rating, Crabgrass, Naked","naked crabgrass; Preemergence, 16 g ai/ha",90
same,"Plant response rating, Crabgrass, Naked","naked crabgrass; Preemergence, 31 g ai/ha",98
same,Itchgrass plant response rating,"itchgrass; 62 g ai/ha, Preemergence",70
same,Itchgrass plant response rating,"itchgrass; 125 g ai/ha, preemergence",95
same,"Plant response rating, Itchgrass","itchgrass; Preemergence, 16 g ai/ha",0
same,"Plant response rating, Itchgrass","itchgrass; Preemergence, 31 g ai/ha",40
same,Field Bindweed plant response rating,"field bindweed; 62 g ai/ha, Preemergence",60
same,Field Bindweed plant response rating,"field bindweed; 125 g ai/ha, preemergence",75
same,"Plant response rating, Field Bindweed","field bindweed; Preemergence, 16 g ai/ha",0
same,"Plant response rating, Field Bindweed","field bindweed; Preemergence, 31 g ai/ha",0
